Consider 2 molecules from patent US6566580B1, “Neurological disease model” (priority 1996, dated 2003).

Values joined by “and” are separate entries in the source; they are usually repeats but may differ in a detail not shown here. Equal entries are not always repeated.

Series [1] concerns synaptic transmission in the Schaffer collateral-commissural pathway. Put plainly: L-AP4 depression of synaptic transmission, field EPSP recordings in hippocampal CA1 slices. It counts as cell-based, mice. The note with it: L-AP4 1 mM. The protocol: To investigate the possible functions of mGlu7 electrophysiological experiments are performed in the CA1 region of the hippocampus, a region rich in mGlu7. […] L-AP4 (1 mM) is therefore applied to wild-type and mGlu7^−/− mice. […] However, all three patterns are seen in both wild-type and mutant mice. On average there is no significance difference in the actions of L-AP4 between groups; the peak L-AP4 induced depressions for wild-type and mutant mice are 40±10% (n=15) and 33±10% (n=14), respectively (P>0.05). Furthermore, no statistically significant differences are seen in intrinsic or synaptic properties between wild-type and mutant mice. Also, paired-pulse facilitation is similar between both groups. Thus, the facilitation ratio obtained, using an interpulse interval of 50 ms, is 1.49±0.03 and 1.45±0.04 for wild-type (n=9) and mutant (n=9) mice, respectively (P>0.05).
Since certain members of the mGlu family have been implicated in the generation of LTP in area CA1, the ability of wild-type and mutant mice to support this form of synaptic plasticity is compared as follows. […]
There are no apparent differences in low frequency synaptic transmission between the two groups of mice. […] Statistical significance is determined using a repeated measures ANOVA test and unpaired Students t-tests. […]

Series [2] shares this test system. The note with it: 1 mM L-AP4, Schaffer collateral-commissural pathway, literature; cited from earlier work.
For the next series, the target named is mGlu7 (Rattus norvegicus, UniProt P35400). The note with it: high concentrations of L-AP4, e.g. 1 mM, recombinant systems; cited from earlier work.
Sequence of mGlu7 (P35400 35-915): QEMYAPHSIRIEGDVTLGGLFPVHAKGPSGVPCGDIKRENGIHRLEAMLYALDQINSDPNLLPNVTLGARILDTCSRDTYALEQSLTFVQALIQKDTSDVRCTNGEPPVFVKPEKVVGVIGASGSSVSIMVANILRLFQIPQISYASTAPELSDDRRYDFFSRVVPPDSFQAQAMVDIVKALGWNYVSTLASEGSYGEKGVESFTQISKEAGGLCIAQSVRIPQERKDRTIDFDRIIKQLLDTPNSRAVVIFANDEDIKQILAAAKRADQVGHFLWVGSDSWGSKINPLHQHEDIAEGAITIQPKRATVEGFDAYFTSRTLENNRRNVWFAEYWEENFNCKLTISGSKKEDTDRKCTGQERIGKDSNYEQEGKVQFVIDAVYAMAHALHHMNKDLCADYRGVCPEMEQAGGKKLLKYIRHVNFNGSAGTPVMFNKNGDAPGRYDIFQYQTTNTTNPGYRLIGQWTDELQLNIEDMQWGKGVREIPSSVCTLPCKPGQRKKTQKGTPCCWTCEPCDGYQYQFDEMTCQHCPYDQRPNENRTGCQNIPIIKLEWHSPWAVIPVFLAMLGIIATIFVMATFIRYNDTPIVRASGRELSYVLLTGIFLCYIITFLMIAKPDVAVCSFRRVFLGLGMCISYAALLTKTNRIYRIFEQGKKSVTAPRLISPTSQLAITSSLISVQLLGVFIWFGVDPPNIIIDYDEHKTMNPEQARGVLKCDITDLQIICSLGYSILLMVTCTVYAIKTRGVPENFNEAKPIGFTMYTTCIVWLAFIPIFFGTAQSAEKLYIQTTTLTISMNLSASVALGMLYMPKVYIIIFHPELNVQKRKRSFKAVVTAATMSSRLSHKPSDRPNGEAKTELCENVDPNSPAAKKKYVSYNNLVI
Series [3] deals with mice (mGluR7 -/-, +/-, +/+). The experiment in a line: Pentylenetetrazol (PTZ)-induced seizures in mGluR7 knockout, heterozygote and wild-type mice. It counts as in vivo. The note with it: PTZ 40 mg/kg i.p. The method, then: Intraperitoneal (i.p.) injection of a normally subconvulsive dose of PTZ (40 mg/kg) induced seizures in 9 out of 9 homozygous mGluR7 knockout mice (age 9 months) as shown in the Table below.
This sensitivity to a subconvulsive dose of PTZ is not yet evident at age 6 weeks but clearly evident at age 10 weeks in mGluR7 homozygous but not in heterozygous littermates as shown in the table below.

The next series relates to mice (mGluR7 -/-, +/-). The experiment in a line: EEG recording with surface electrodes before and after PTZ injection. It counts as in vivo. The note with it: PTZ 40 mg/kg. The protocol: In addition, two mGluR7−/− and two mGluR7+/− mice were equipped with surface electrodes to record EEGs before and after injection of 40 mg/kg PTZ.

For the molecule `N[C@@H](CCP(=O)(O)O)C(=O)O` [L-AP4, (S)-2-amino-4-phosphonobutanoate], the “peak L-AP4 induced depression” value was determined as 33±10% in series [1] (mutant (mGlu7 -/-) mice, n=14) and 40±10% in series [1] (wild-type mice, n=15). The “effect on synaptic transmission” value in series [2] is “can depress synaptic transmission”. In addition, at mGlu7, the “activation of mGlu7” value is on record as “can activate mGlu7”.

For `C1CCc2nnnn2CC1` [PTZ, Pentylenetetrazol], the “mice with induced seizures” value in series [3] (homozygous mGluR7 knockout mice, age 9 months) was 9 out of 9; in series [3] (wild type mice (mGluR7+/+)), “None of 9”. Also, the Clonic activity in series [3] (mGluR7 +/- heterozygote mice, per animal) was 3′; in series [3] (mGluR7 -/- mice, age 6 weeks, per animal), 6′; in series [3] (mGluR7 -/- mice, age 10 weeks, per animal) it was 2′ (2×) and 4′ (4×); in series [3] (mGluR7 -/- mice, per animal), 2′ and 15′. In series [3] (mGluR7+/- mice), the “mice with clonic seizures” value is recorded as 1 out of 9. The Exitus in series [3] (mGluR7 -/- mice, per animal) was 4′ (2×) and 12′ and 11′ and 6′. Also, the Tonic activity in series [3] (mGluR7 -/- mice, per animal) is 3′ (2×) and 12′ and 2′ and 4′ and 6′. In addition, the seizures following injection entry in series [3] (wild type non-transgenic mice tested in parallel with the 6 and 10 week experiments) is on record as “no seizures”. The “EEG after PTZ injection” value is “typical signals reminiscent of seizure activity” with mice (mGluR7 -/-, +/-) (homozygous mGluR7 knockout mice) and “no such activity developed” in the series with mice (mGluR7 -/-, +/-) (mGluR7+/- mice).
